In the NIST ThermoML archive (doi:10.1021/acs.jced.7b00354):
Several values for one entry are separate records, joined by “and”; a condition that tells them apart may be missing. Equal values may be shown once. ± gives the expanded uncertainty stated by the source.

Settings: Transpiration method

O=C1C=CC(=O)C=C1 [1,4-benzoquinone]
Crystal
Settings | vapor or sublimation pressure
290.2 K | 0.01002 ± 0.0011 kPa
293.4 K | 0.01343 ± 0.0015 kPa
297.5 K | 0.02081 ± 0.0023 kPa
298.5 K | 0.02319 ± 0.0025 kPa
301.4 K | 0.03014 ± 0.0032 kPa
303.1 K | 0.03408 ± 0.0037 kPa
307.3 K | 0.05078 ± 0.0054 kPa
308.3 K | 0.0527 ± 0.0057 kPa
310.2 K | 0.06526 ± 0.007 kPa
313.3 K | 0.07951 ± 0.0085 kPa
314.1 K | 0.08416 ± 0.0091 kPa
317.3 K | 0.1098 ± 0.012 kPa
320.1 K | 0.1364 ± 0.015 kPa
323 K | 0.1783 ± 0.019 kPa
323.3 K | 0.1841 ± 0.02 kPa
324.2 K | 0.1861 ± 0.02 kPa
327.2 K | 0.2502 ± 0.027 kPa and 0.2417 ± 0.026 kPa
328.1 K | 0.2659 ± 0.028 kPa
330.3 K | 0.3065 ± 0.033 kPa
333.2 K | 0.3846 ± 0.041 kPa and 0.3832 ± 0.041 kPa
334.2 K | 0.4116 ± 0.044 kPa
338.1 K | 0.5504 ± 0.059 kPa
338.2 K | 0.5497 ± 0.059 kPa and 0.5525 ± 0.059 kPa

CC1=CC(=O)C=CC1=O [2,5-cyclohexadiene-1,4-dione, 2-methyl]
Settings | vapor or sublimation pressure
282.2 K, Crystal | 0.00318 ± 0.00036 kPa
285.6 K, Crystal | 0.00523 ± 0.00057 kPa and 0.0051 ± 0.00055 kPa
286.8 K, Crystal | 0.00566 ± 0.00061 kPa
288.5 K, Crystal | 0.00664 ± 0.00073 kPa and 0.00678 ± 0.00074 kPa
290.8 K, Crystal | 0.0091 ± 0.00099 kPa
295.2 K, Crystal | 0.01426 ± 0.0015 kPa
300.4 K, Crystal | 0.02498 ± 0.0027 kPa
305.3 K, Crystal | 0.04235 ± 0.0046 kPa
310.2 K, Crystal | 0.06335 ± 0.0068 kPa
312.9 K, Crystal | 0.08525 ± 0.0092 kPa
315.2 K, Crystal | 0.1054 ± 0.011 kPa
317.9 K, Crystal | 0.1305 ± 0.014 kPa
320.1 K, Crystal | 0.1774 ± 0.019 kPa
322 K, Crystal | 0.2004 ± 0.022 kPa
325.1 K, Crystal | 0.2769 ± 0.03 kPa
327.8 K, Crystal | 0.3444 ± 0.037 kPa
330.1 K, Crystal | 0.4336 ± 0.046 kPa
331.6 K, Crystal | 0.4466 ± 0.048 kPa
332.1 K, Crystal | 0.5012 ± 0.058 kPa
335.2 K, Crystal | 0.6342 ± 0.068 kPa
336.7 K, Crystal | 0.7271 ± 0.078 kPa
343.2 K, Liquid | 1.019 ± 0.11 kPa
347.2 K, Liquid | 1.264 ± 0.13 kPa
351.2 K, Liquid | 1.552 ± 0.17 kPa
355.1 K, Liquid | 1.947 ± 0.21 kPa
356.8 K, Liquid | 2.104 ± 0.22 kPa
359.1 K, Liquid | 2.373 ± 0.25 kPa
363.1 K, Liquid | 2.94 ± 0.31 kPa
